Experimental data taken from ChEMBL document CHEMBL6074652, “New rhodol-sulforaphane conjugates as innovative isothiocyanate-based cytotoxic agents for cancer cells” (Eur J Med Chem, 2024).
Calls of active or inactive are those of the source. The calls are words filed in the database; no cut-off is given here.

Legend:
Jurkat [1] = test: Induction of DNA damage in human Jurkat cells assessed as single strand breaks at <32 uM by measuring nuclear diffusion factor by fast halo based fluorescence microscopic analysis; format: functional, cell-based
Jurkat [2] = test: Cytotoxicity against human Jurkat cells assessed as inhibition of cell viability < 32 uM incubated for 72 hrs by trypan blue staining based MTT assay; format: functional
Jurkat [3] = test: Induction of DNA damage in human Jurkat cells assessed as fold increase in p53 expression at 4 uM by flow cytometric analysis; format: functional
TK6 [4] = test: Cytotoxicity against human TK6 cells assessed as reduction in cell viability incubated for 24 hrs by trypan blue staining based MTT assay; format: functional; conditions: dose 0-6 µM
RPMI-1788 [5] = test: Cytotoxicity against human RPMI-1788 cells assessed as reduction in cell viability incubated for 24 hrs by trypan blue staining based MTT assay; format: functional; conditions: dose 0-8 µM
TK6 [6] = test: Induction of DNA damage in human TK6 cells assessed as micronuclei formation at >4 uM incubated for 4 hrs by May-Grunwald/Giemsa staining based microscopic analysis; format: functional, cell-based
Jurkat [7] = test: Induction of DNA damage in human Jurkat cells assessed as fold increase in H2AX phosphorylation expression at 4 to 8 uM incubated for 30 mins by flow cytometric analysis; format: functional; conditions: dose 4-8 µM, 0.5 h
U-937 [8] = test: Cytotoxicity against human U-937 cells assessed as reduction in cell viability incubated for 24 hrs by trypan blue staining based MTT assay; format: functional; conditions: dose 0-8 µM
RPMI-1788 [9] = test: Cytotoxicity against human RPMI-1788 cells assessed as reduction in cell viability at 0 to 8 uM incubated for 24 hrs by trypan blue staining based MTT assay; format: functional; conditions: dose 0-8 µM
Jurkat [10] = test: Cytotoxicity against human Jurkat cells assessed as cell growth inhibition under 37 degreeC incubated for 72 hrs by trypan blue staining based MTT assay; format: functional
Jurkat [11] = test: Induction of DNA damage in human Jurkat cells assessed as increase in accumulation of single strand breaks by measuring nuclear diffusion factor by fast halo based fluorescence microscopic analysis; format: functional, cell-based; conditions: dose 0-8 µM
Jurkat [12] = test: Induction of apoptosis in human Jurkat cells assessed as increase in caspase-3 activity incubated for 2 hrs by colorimetric protease assay; format: functional, cell-based; conditions: dose 2-6 µM
Jurkat [13] = test: Cytotoxicity against human Jurkat cells at 4 uM in presence of iron-chelator o-phenanthroline by trypan blue staining based MTT assay; format: functional, cell-based
Jurkat [14] = test: Cytotoxicity against human Jurkat cells assessed as inhibition of cell viability incubated for 72 hrs by trypan blue staining based MTT assay; format: functional
Jurkat [15] = test: Induction of apoptosis in human Jurkat cells assessed as increase in caspase-8 activity incubated for 2 hrs by colorimetric protease assay; format: functional, cell-based; conditions: dose 2-6 µM
Jurkat [16] = test: Induction of DNA damage in human Jurkat cells assessed as accumulation of single strand breaks at 2 to 8 uM by measuring nuclear diffusion factor by fast halo based fluorescence microscopic analysis; format: functional, cell-based; conditions: dose 2-8 µM
Jurkat [17] = test: Induction of DNA damage in human Jurkat cells measured at 1 hr; format: functional, cell-based; conditions: dose 6.0 µM
OCI-AML-3 [18] = test: Cytotoxicity against human OCI-AML-3 cells assessed as reduction in cell viability incubated for 24 hrs by trypan blue staining based MTT assay; format: functional; conditions: dose 0-8 µM
MOLM-13 [19] = test: Cytotoxicity against human MOLM-13 cells assessed as reduction in cell viability at 0 to 8 uM incubated for 24 hrs by trypan blue staining based MTT assay; format: functional; conditions: dose 0-8 µM
OCI-AML-3 [20] = test: Cytotoxicity against human OCI-AML-3 cells assessed as reduction in cell viability at 0 to 8 uM incubated for 24 hrs by trypan blue staining based MTT assay; format: functional; conditions: dose 0-8 µM
TK6 [21] = test: Induction of DNA damage in human TK6 cells assessed as micronuclei formation at 2 uM incubated for 4 hrs by May-Grunwald/Giemsa staining based microscopic analysis; format: functional, cell-based
TK6 [22] = test: Cytotoxicity against human TK6 cells assessed as reduction in cell viability at 0 to 6 uM incubated for 24 hrs by trypan blue staining based MTT assay; format: functional; conditions: dose 0-6 µM
TK6 [23] = test: Induction of DNA damage in human TK6 cells assessed as micronuclei formation incubated for 4 hrs by May-Grunwald/Giemsa staining based microscopic analysis; format: functional, cell-based; conditions: dose 1-4 µM
TK6 [24] = test: Induction of DNA damage in human TK6 cells assessed as micronuclei formation at 4 uM by measuring 1000 binucleated cells incubated for 4 hrs by May-Grunwald/Giemsa staining based microscopic analysis; format: functional
MV4-11 [25] = test: Cytotoxicity against human MV4-11 cells assessed as reduction in cell viability incubated for 24 hrs by trypan blue staining based MTT assay; format: functional; conditions: dose 0-8 µM
Mitochondrial membrane = test: Induction of mitochondrial membrane potential loss in human Jurkat cells at 2 to 6 uM by flow cytometric analysis; conditions: dose 2-6 µM
TK6 [26] = test: Induction of DNA damage in human TK6 cells assessed as accumulation of single strand breaks at 2 to 8 uM by measuring nuclear diffusion factor by fast halo based fluorescence microscopic analysis; format: functional, cell-based; conditions: dose 2-8 µM
Jurkat [27] = test: Induction of DNA damage in human Jurkat cells assessed as single strand breaks at 8 uM by measuring nuclear diffusion factor measured after 3 hrs by fast halo based fluorescence microscopic analysis relative to control; format: functional
Jurkat [28] = test: Induction of apoptosis in human Jurkat cells assessed as cleavage of PARP1 at 4 to 6 uM by flow cytometric analysis; format: functional, cell-based; conditions: dose 4-6 µM
Jurkat [29] = test: Induction of DNA damage in human Jurkat cells at 4 uM assessed as nuclear diffusion factor incubated for 1 hr in presence of rotenone by fast halo based fluorescence microscopic analysis; format: functional, cell-based
U-937 [30] = test: Cytotoxicity against human U-937 cells assessed as reduction in cell viability at 0 to 8 uM incubated for 24 hrs by trypan blue staining based MTT assay; format: functional; conditions: dose 0-8 µM
Jurkat [31] = test: Cytotoxicity against human Jurkat cells assessed as cell growth inhibition under 4 degreeC incubated for 72 hrs by trypan blue staining based MTT assay; format: functional
Jurkat [32] = test: Induction of DNA damage in human Jurkat cells assessed as accumulation of single strand breaks at 2 to 6 uM under 4 degreeC incubated for 1 hr by measuring nuclear diffusion factor by fast halo based fluorescence microscopic analysis; format: functional, cell-based; conditions: dose 2-6 µM
MV4-11 [33] = test: Cytotoxicity against human MV4-11 cells assessed as reduction in cell viability at 0 to 8 uM incubated for 24 hrs by trypan blue staining based MTT assay; format: functional; conditions: dose 0-8 µM
Jurkat [34] = test: Cytotoxicity against human Jurkat cells at 4 uM incubated for 1 hr in presence of rotenone by trypan blue staining based MTT assay; format: functional, cell-based
Jurkat [35] = test: Induction of DNA damage in human Jurkat cells at 4 uM assessed as nuclear diffusion factor incubated for 1 hr in presence of iron-chelator o-phenanthroline by fast halo based fluorescence microscopic analysis; format: functional, cell-based
MOLM-13 [36] = test: Cytotoxicity against human MOLM-13 cells assessed as reduction in cell viability incubated for 24 hrs by trypan blue staining based MTT assay; format: functional; conditions: dose 0-8 µM
Jurkat [37] = test: Cytotoxicity against human Jurkat cells assessed as cell survival rate at 30 uM incubated for 72 hrs by trypan blue staining based MTT assay; conditions: read-out: Survival
Jurkat [38] = test: Induction of DNA damage in human Jurkat cells at 6 uM assessed as nuclear diffusion factor incubated for 1 hr in presence of iron-chelator o-phenanthroline by fast halo based fluorescence microscopic analysis; format: functional, cell-based
Jurkat [39] = test: Cytotoxicity against human Jurkat cells at 6 uM incubated for 1 hr in presence of rotenone by trypan blue staining based MTT assay; format: functional, cell-based
Jurkat [40] = test: Induction of apoptosis in human Jurkat cells assessed as appearance of secondary necrosis pretreated with compound for 1 hr and measured after 5 hrs by uranyl acetate and lead citrate staining based transmission electron microscopic analysis; format: functional, cell-based; conditions: time 6.0 hrs
Jurkat [41] = test: Induction of apoptosis in human Jurkat cells assessed as appearance of micronuclei pretreated with compound for 1 hr and measured after 5 hrs by uranyl acetate and lead citrate staining based transmission electron microscopic analysis; format: functional, cell-based; conditions: time 6.0 hrs
Jurkat [42] = test: Induction of apoptosis in human Jurkat cells assessed as appearance of cup-shaped masses pretreated with compound for 1 hr and measured after 5 hrs by uranyl acetate and lead citrate staining based transmission electron microscopic analysis; format: functional, cell-based; conditions: time 6.0 hrs
Jurkat [43] = test: Induction of apoptosis in human Jurkat cells assessed as appearance of chromatin condensation pretreated with compound for 1 hr and measured after 5 hrs by uranyl acetate and lead citrate staining based transmission electron microscopic analysis; format: functional, cell-based; conditions: time 6.0 hrs
Jurkat [44] = test: Cytotoxicity against human Jurkat cells at 6 uM in presence of iron-chelator o-phenanthroline by trypan blue staining based MTT assay; format: functional, cell-based
Jurkat [45] = test: Induction of DNA damage in human Jurkat cells at 6 uM assessed as nuclear diffusion factor incubated for 1 hr in presence of rotenone by fast halo based fluorescence microscopic analysis; format: functional, cell-based

Row | Structure (SMILES) | fold change (FC) (Jurkat [3]) | Activity (TK6 [4]) | Activity (RPMI-1788 [5]) | Activity (TK6 [6]) | fold change (FC) (Jurkat [7]) | Activity (U-937 [8]) | Activity (RPMI-1788 [9]) | IC50 (Jurkat [10]) | Activity (Jurkat [11]) | Activity (Jurkat [12]) | Activity (Jurkat [14]) | IC50 (Jurkat [14]) | Activity (Jurkat [15]) | Activity (Jurkat [16]) | Activity (Jurkat [17]) | Activity (OCI-AML-3 [18]) | Activity (MOLM-13 [19]) | Activity (OCI-AML-3 [20]) | Activity (TK6 [22]) | Activity (TK6 [23]) | further results
1 | Cc1ccccc1-c1c2ccc(=O)cc-2oc2cc(OCCCCCCN)ccc12 |  |  |  |  |  |  |  |  |  |  |  |  |  |  |  |  |  |  |  |  | Activity (Jurkat [1]): inactive; Activity (Jurkat [2]): inactive
2 | Cc1ccccc1-c1c2ccc(=O)cc-2oc2cc(OCCOCCN=C=S)ccc12 | 70.4 | Dose-dependent-effect | Dose-dependent-effect | Active | 2 | Dose-dependent-effect | Active | 3.65 µM | Dose-dependent-effect | Dose-dependent-effect | Dose-dependent-effect | 3.65 µM | Dose-dependent-effect | Active | Dose-dependent-effect | Dose-dependent-effect | Active | Active | Active | Dose-dependent-effect | Activity (Jurkat [13]): Active; Activity (TK6 [21]): Active; Activity (TK6 [24]): 19.59; Activity (MV4-11 [25]): Dose-dependent-effect; Activity (Mitochondrial membrane): Active; Activity (TK6 [26]): Active; Activity (Jurkat [27]): 48.7%; Activity (Jurkat [28]): Active; Activity (Jurkat [29]): Active; Activity (U-937 [30]): Active; IC50 (Jurkat [31]): 2.54 µM; Activity (Jurkat [32]): Active; Activity (MV4-11 [33]): Active; Activity (Jurkat [34]): Active; Activity (Jurkat [35]): Active; Activity (MOLM-13 [36]): Dose-dependent-effect
3 | C[S+]([O-])CCCCN=C=S (centres undefined) [SULFORAPHANE] |  |  |  |  |  |  |  |  |  |  |  | 29.7 µM |  |  |  |  |  |  |  |  | viability at 30 µM (Jurkat [37]): 66.2%
4 | Cc1ccccc1-c1c2ccc(=O)cc-2oc2cc(OCCCCCCN=C=S)ccc12 | 45.5 | Dose-dependent-effect | Dose-dependent-effect | Active | 2 | Dose-dependent-effect | Active | 5.96 µM | Dose-dependent-effect | Dose-dependent-effect | Dose-dependent-effect | 5.96 µM | Dose-dependent-effect | Active | Dose-dependent-effect | Dose-dependent-effect | Active | Active | Active | Dose-dependent-effect | Activity (Jurkat [38]): Active; Activity (Jurkat [39]): Active; Activity (Jurkat [40]): Active; Activity (Jurkat [41]): Active; Activity (Jurkat [42]): Active; Activity (TK6 [24]): 13.07; Activity (MV4-11 [25]): Dose-dependent-effect; Activity (Jurkat [43]): Active; Activity (Mitochondrial membrane): Active; Activity (TK6 [26]): Active; Activity (Jurkat [27]): 59.2%; Activity (Jurkat [28]): Active; Activity (Jurkat [44]): Active; Activity (Jurkat [45]): Active; Activity (U-937 [30]): Active; IC50 (Jurkat [31]): 3.99 µM; Activity (Jurkat [32]): Active; Activity (MV4-11 [33]): Active; Activity (MOLM-13 [36]): Dose-dependent-effect
